How the values were obtained:
Format in all cases: in vivo
water foxtail [1] = experiment: Test Example 4: herbicidal effect in foliage treatment; details: dose 3.2 g/a, three weeks after application
How it was run: (§1)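 Visual herbicidal scores on a graded scale were recorded three weeks after foliar application. Compounds went on as diluted emulsifiable concentrates at predetermined g/a to plants grown 14 days in a 25 to 30° C greenhouse.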

common lambsquater [2] = experiment: as above; details: dose 3.2 g/a, three weeks after application
How it was run: as §1

posumbu knotweed [3] = experiment: as above; details: dose 3.2 g/a, three weeks after application
How it was run: as §1

barnyardgrass [4] = experiment: as above; details: dose 3.2 g/a, three weeks after application
How it was run: as §1

velvetleaf [5] = experiment: as above; details: dose 3.2 g/a, three weeks after application
How it was run: as §1

redroot pigweed [6] = experiment: as above; details: dose 3.2 g/a, three weeks after application
How it was run: as §1

giant foxtail [7] = experiment: as above; details: dose 3.2 g/a, three weeks after application
How it was run: as §1

common chickweed [8] = experiment: as above; details: dose 3.2 g/a, three weeks after application
How it was run: as §1

common ragweed [9] = experiment: as above; details: dose 3.2 g/a, three weeks after application
How it was run: as §1

large crabgrass [10] = experiment: as above; details: dose 3.2 g/a, three weeks after application
How it was run: as §1

beadstraw = experiment: as above; details: dose 3.2 g/a, three weeks after application
How it was run: as §1

Italian ryegrass [11] = experiment: as above; details: dose 3.2 g/a, three weeks after application
How it was run: as §1

barnyardgrass [12] = experiment: Test Example 2: herbicidal effects during the vegetation period under submerged conditions; details: treatment during the vegetation period under submerged conditions; dose 2.52 g/a
How it was run: (§2)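 Barnyardgrass, bulrush and ducksalad were co-sown in alluvial soil flooded to 4 cm and grown in a greenhouse at 25 to 30° C. At the 1- or 2-leaf stage, water-diluted emulsifiable concentrates went onto the water surface at set doses (g/a). Herbicidal effect was scored three weeks later on a graded scale.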

ducksalad [13] = experiment: as above; details: treatment during the vegetation period under submerged conditions; dose 2.52 g/a
How it was run: as §2

bulrush [14] = experiment: as above; details: treatment during the vegetation period under submerged conditions; dose 2.52 g/a
How it was run: as §2

barnyardgrass [15] = experiment: Test Example 1: herbicidal effects in preemergence treatment under submerged conditions; details: dose 2.52 g/a
How it was run: (§3)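 Submerged conditions, 4 cm water over alluvial soil. Weeds sown and 2.5-leaf rice transplanted; compound applied preemergence to water surface, doses in g per are. Greenhouse, 25 to 30° C., three weeks, then 0–5 mortality rating.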

ducksalad [16] = experiment: as above; details: dose 2.52 g/a
How it was run: as §3

bulrush [17] = experiment: as above; details: dose 2.52 g/a
How it was run: as §3

water foxtail [18] = experiment: Test Example 3: herbicidal effects in soil treatment; details: dose 3.2 g/a
How it was run: (§4)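 Seeds were sown in sterilized diluvial soil and covered with about 1.5 cm of soil. Compounds, formulated as emulsifiable concentrates and diluted with water, were sprayed evenly over the soil surface at set doses in g/a. Herbicidal effect was scored on a rating scale three weeks later.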

common lambsquater [19] = experiment: as above; details: dose 3.2 g/a
How it was run: as §4

posumbu knotweed [20] = experiment: as above; details: dose 3.2 g/a
How it was run: as §4

barnyardgrass [21] = experiment: as above; details: dose 3.2 g/a
How it was run: as §4

velvetleaf [22] = experiment: as above; details: dose 3.2 g/a
How it was run: as §4

redroot pigweed [23] = experiment: as above; details: dose 3.2 g/a
How it was run: as §4

giant foxtail [24] = experiment: as above; details: dose 3.2 g/a
How it was run: as §4

common chickweed [25] = experiment: as above; details: dose 3.2 g/a
How it was run: as §4

common ragweed [26] = experiment: as above; details: dose 3.2 g/a
How it was run: as §4

large crabgrass [27] = experiment: as above; details: dose 3.2 g/a
How it was run: as §4

Italian ryegrass [28] = experiment: as above; details: dose 3.2 g/a
How it was run: as §4

transplanted rice = experiment: Test Example 1: preemergence treatment under submerged conditions, effect on crop; details: dose 2.52 g/a
How it was run: as §3

| Structure (SMILES) | G: water foxtail, herbicidal effect (water foxtail [1]) | L: common lambsquater, herbicidal effect (common lambsquater [2]) | M: posumbu knotweed, herbicidal effect (posumbu knotweed [3]) | A: barnyardgrass, herbicidal effect (barnyardgrass [4]) | I: velvetleaf, herbicidal effect (velvetleaf [5]) | K: redroot pigweed, herbicidal effect (redroot pigweed [6]) | E: giant foxtail, herbicidal effect (giant foxtail [7]) | N: common chickweed, herbicidal effect (common chickweed [8]) | J: common ragweed, herbicidal effect (common ragweed [9]) | D: large crabgrass, herbicidal effect (large crabgrass [10]) | O: beadstraw, herbicidal effect (beadstraw) | H: Italian ryegrass, herbicidal effect (Italian ryegrass [11]) | A: barnyardgrass, herbicidal effect (evaluation scale 0-5) (barnyardgrass [12]) | C: ducksalad, herbicidal effect (evaluation scale 0-5) (ducksalad [13]) | B: bulrush, herbicidal effect (evaluation scale 0-5) (bulrush [14]) | A: barnyardgrass, herbicidal effect (evaluation scale 0-5) (barnyardgrass [15]) | C: ducksalad, herbicidal effect (evaluation scale 0-5) (ducksalad [16]) | B: bulrush, herbicidal effect (evaluation scale 0-5) (bulrush [17]) | G: water foxtail, herbicidal effect (evaluation scale 0-5) (water foxtail [18]) | L: common lambsquater, herbicidal effect (evaluation scale 0-5) (common lambsquater [19]) | also measured |
| --- | --- | --- | --- | --- | --- | --- | --- | --- | --- | --- | --- | --- | --- | --- | --- | --- | --- | --- | --- | --- | --- |
| CCOC(=O)N(c1ccccc1CN1COC(C)(CC)CC1=O)S(=O)(=O)C(F)(F)F (stereo not drawn) [II-42] | 5 (mortality of 90% or above (nearly complete death)) | 3 (mortality of at least 40% and less than 70%) | 0 (mortality of less than 5% (almost ineffective)) | 5 (mortality of 90% or above (nearly complete death)) | 5 (mortality of 90% or above (nearly complete death)) | 0 (mortality of less than 5% (almost ineffective)) | 5 (mortality of 90% or above (nearly complete death)) | 4 (mortality of at least 70% and less than 90%) | 3 (mortality of at least 40% and less than 70%) | 3 (mortality of at least 40% and less than 70%) | 3 (mortality of at least 40% and less than 70%) | 3 (mortality of at least 40% and less than 70%) | 5 (mortality of 90% or above (nearly complete death)) | 5 (mortality of 90% or above (nearly complete death)) | 5 (mortality of 90% or above (nearly complete death)) | 5 (mortality of 90% or above (nearly complete death)) | 5 (mortality of 90% or above (nearly complete death)) | 5 (mortality of 90% or above (nearly complete death)) | 5 (mortality of 90% or above (nearly complete death)) | 0 (mortality of less than 5% (almost ineffective)) | M: posumbu knotweed, herbicidal effect (evaluation scale 0-5) (posumbu knotweed [20]): 4 (mortality of at least 70% and less than 90%); A: barnyardgrass, herbicidal effect (evaluation scale 0-5) (barnyardgrass [21]): 5 (mortality of 90% or above (nearly complete death)); I: velvetleaf, herbicidal effect (evaluation scale 0-5) (velvetleaf [22]): 5 (mortality of 90% or above (nearly complete death)); K: redroot pigweed, herbicidal effect (evaluation scale 0-5) (redroot pigweed [23]): 3 (mortality of at least 40% and less than 70%); E: giant foxtail, herbicidal effect (evaluation scale 0-5) (giant foxtail [24]): 1 (mortality of at least 5% and less than 20%); N: common chickweed, herbicidal effect (evaluation scale 0-5) (common chickweed [25]): 5 (mortality of 90% or above (nearly complete death)); J: common ragweed, herbicidal effect (evaluation scale 0-5) (common ragweed [26]): 4 (mortality of at least 70% and less than 90%); D: large crabgrass, herbicidal effect (evaluation scale 0-5) (large crabgrass [27]): 5 (mortality of 90% or above (nearly complete death)); H: Italian ryegrass, herbicidal effect (evaluation scale 0-5) (Italian ryegrass [28]): 5 (mortality of 90% or above (nearly complete death)); a: transplanted rice, effect on crop (evaluation scale 0-5) (transplanted rice): 0 (mortality of less than 5% (almost ineffective)) |
| CC1(C(F)(F)F)CC(=O)N(Cc2ccccc2NS(=O)(=O)C(F)(F)F)CO1 (stereo not drawn) [II-46] | 2 (mortality of at least 20% and less than 40%) | 2 (mortality of at least 20% and less than 40%) | 2 (mortality of at least 20% and less than 40%) | 4 (mortality of at least 70% and less than 90%) | 1 (mortality of at least 5% and less than 20%) | 0 (mortality of less than 5% (almost ineffective)) | 4 (mortality of at least 70% and less than 90%) | 4 (mortality of at least 70% and less than 90%) | 3 (mortality of at least 40% and less than 70%) | 4 (mortality of at least 70% and less than 90%) | 4 (mortality of at least 70% and less than 90%) | 0 (mortality of less than 5% (almost ineffective)) | 4 (mortality of at least 70% and less than 90%) | 5 (mortality of 90% or above (nearly complete death)) | 5 (mortality of 90% or above (nearly complete death)) | 4 (mortality of at least 70% and less than 90%) | 5 (mortality of 90% or above (nearly complete death)) | 5 (mortality of 90% or above (nearly complete death)) | 5 (mortality of 90% or above (nearly complete death)) | 4 (mortality of at least 70% and less than 90%) | M: posumbu knotweed, herbicidal effect (evaluation scale 0-5) (posumbu knotweed [20]): 3 (mortality of at least 40% and less than 70%); A: barnyardgrass, herbicidal effect (evaluation scale 0-5) (barnyardgrass [21]): 5 (mortality of 90% or above (nearly complete death)); I: velvetleaf, herbicidal effect (evaluation scale 0-5) (velvetleaf [22]): 3 (mortality of at least 40% and less than 70%); K: redroot pigweed, herbicidal effect (evaluation scale 0-5) (redroot pigweed [23]): 0 (mortality of less than 5% (almost ineffective)); E: giant foxtail, herbicidal effect (evaluation scale 0-5) (giant foxtail [24]): 5 (mortality of 90% or above (nearly complete death)); N: common chickweed, herbicidal effect (evaluation scale 0-5) (common chickweed [25]): 4 (mortality of at least 70% and less than 90%); J: common ragweed, herbicidal effect (evaluation scale 0-5) (common ragweed [26]): 4 (mortality of at least 70% and less than 90%); D: large crabgrass, herbicidal effect (evaluation scale 0-5) (large crabgrass [27]): 5 (mortality of 90% or above (nearly complete death)); H: Italian ryegrass, herbicidal effect (evaluation scale 0-5) (Italian ryegrass [28]): 3 (mortality of at least 40% and less than 70%); a: transplanted rice, effect on crop (evaluation scale 0-5) (transplanted rice): 0 (mortality of less than 5% (almost ineffective)) |
